In one data set the target is T1, human GLP-1 receptor (Homo sapiens, UniProt P43220).
T1 construct: host or cells: CHO-K1
The data set is described as follows: cAMP activity test (cAMP dynamic HTRF kit) in CHO-K1/GLP-1 receptor-expressing cells. Type of data set: cell-based. The settings on record: cAMP activity, CHO-K1/GLP-1 receptor-expressing cells; read-out: EC50. Put shortly:
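Cells in HBSS with 0.1% BSA, 0.5 mM IBMX and 5 mM HEPES, then lysed; cAMP-d2 and anti-cAMP cryptate added for 3 h. HTRF read-out, where FRET signal is inversely proportional to intracellular cAMP.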

Another data set deals with T2, hERG (Homo sapiens, UniProt Q12809).
T2 construct: purchased Invitrogen PV5365
The data set is described as follows: hERG inhibition test (Predictor hERG Fluorescence Polarization assay kit). Type of data set: binding. The conditions noted are these: probe kit Tracer (fluorescent hERG ligand), hERG % inhibition at 10 uM, relative to E-4031 and solvent control. The procedure, abridged: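 Competitive fluorescence-polarization binding of fluorescent tracer to hERG membrane preparation, 2.5 h at room temperature, mP read at 531/579 nm. % inhibition at 10 uM test compound, scaled between solvent control (0%) and E-4031 (100%).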

Structures are written as SMILES.

T1 sequence (P43220 24-463): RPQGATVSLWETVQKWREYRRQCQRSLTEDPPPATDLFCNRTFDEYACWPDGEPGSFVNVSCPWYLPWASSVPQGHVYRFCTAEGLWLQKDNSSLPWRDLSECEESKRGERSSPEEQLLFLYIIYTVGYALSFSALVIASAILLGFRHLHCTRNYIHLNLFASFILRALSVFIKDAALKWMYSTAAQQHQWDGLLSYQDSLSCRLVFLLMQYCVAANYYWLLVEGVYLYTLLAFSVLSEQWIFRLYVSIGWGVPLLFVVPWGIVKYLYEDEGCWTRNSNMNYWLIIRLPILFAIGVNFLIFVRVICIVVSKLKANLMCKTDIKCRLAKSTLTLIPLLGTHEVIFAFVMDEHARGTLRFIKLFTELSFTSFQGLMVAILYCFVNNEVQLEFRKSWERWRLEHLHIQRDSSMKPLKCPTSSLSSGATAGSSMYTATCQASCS
T2 sequence (Q12809 whole entry): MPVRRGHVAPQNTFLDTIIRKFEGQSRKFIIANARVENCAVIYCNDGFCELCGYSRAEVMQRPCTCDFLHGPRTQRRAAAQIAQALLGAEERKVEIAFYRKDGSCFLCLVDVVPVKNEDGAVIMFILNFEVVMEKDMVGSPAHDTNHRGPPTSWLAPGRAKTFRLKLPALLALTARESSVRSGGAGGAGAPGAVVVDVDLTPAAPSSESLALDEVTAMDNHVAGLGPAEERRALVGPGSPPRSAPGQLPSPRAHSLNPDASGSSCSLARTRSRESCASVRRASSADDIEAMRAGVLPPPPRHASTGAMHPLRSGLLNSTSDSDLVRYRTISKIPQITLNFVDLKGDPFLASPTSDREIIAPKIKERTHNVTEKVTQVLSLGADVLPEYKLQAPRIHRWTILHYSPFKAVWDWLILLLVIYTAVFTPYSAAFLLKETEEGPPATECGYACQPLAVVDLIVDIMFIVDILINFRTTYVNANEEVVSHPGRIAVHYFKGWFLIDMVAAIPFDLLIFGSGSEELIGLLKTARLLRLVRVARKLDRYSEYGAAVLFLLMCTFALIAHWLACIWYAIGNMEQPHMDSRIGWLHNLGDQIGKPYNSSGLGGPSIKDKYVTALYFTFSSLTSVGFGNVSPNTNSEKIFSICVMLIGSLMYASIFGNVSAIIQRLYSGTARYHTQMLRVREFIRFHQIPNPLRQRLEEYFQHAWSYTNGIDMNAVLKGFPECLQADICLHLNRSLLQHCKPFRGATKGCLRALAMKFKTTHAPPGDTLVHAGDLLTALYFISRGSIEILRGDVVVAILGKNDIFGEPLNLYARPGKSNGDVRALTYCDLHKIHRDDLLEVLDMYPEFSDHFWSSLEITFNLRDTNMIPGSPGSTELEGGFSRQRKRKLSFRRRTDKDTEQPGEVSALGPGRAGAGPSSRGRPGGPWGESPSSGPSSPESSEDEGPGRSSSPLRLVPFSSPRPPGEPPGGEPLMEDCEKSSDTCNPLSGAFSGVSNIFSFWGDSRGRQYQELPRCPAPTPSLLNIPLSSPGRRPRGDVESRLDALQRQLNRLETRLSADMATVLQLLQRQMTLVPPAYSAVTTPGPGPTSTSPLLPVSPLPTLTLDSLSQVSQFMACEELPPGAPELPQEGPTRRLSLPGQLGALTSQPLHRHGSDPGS

For `N#Cc1ccc(COc2cc(-c3ccc(Cc4nc5ccc(C(=O)O)cc5n4CC4CCCO4)cc3F)ccc2F)c(F)c1` (stereo not shown) [Example 93, 2-((3′-(4-cyano-2-fluorobenzyloxy)-2,4′-difluorobiphenyl-4-yl)methyl)-1-((tetrahydrofuran-2-yl)methyl)-1H-benzo[d]imidazole-6-carboxylic acid], the EC50 at human GLP-1 receptor is 1100 nM. For the same molecule, at hERG, the inhibition at 2.5 h, 10 µM was 8.9%.
Taken in the same sequence, the figures for `COc1cccc(COc2cccc(-c3ccc(Cc4nc5ccc(C(=O)O)cc5n4Cc4ccco4)nc3)c2)c1` [Example 23, 1-(furan-2-ylmethyl)-2-((5-(3-(3-methoxybenzyloxy)phenyl)pyridin-2-yl)methyl)-1H-benzo[d]imidazole-6-carboxylic acid] were 610 nM and -6.89%.
Taken in the same sequence, the figures for `O=C(O)c1ccc2nc(Cc3ccc(-c4cccc(OCc5ccc(F)cc5F)n4)c(F)c3)n(C[C@@H]3CCO3)c2c1` [Example 119, (S)-2-(4-(6-((2,4-difluorobenzyl)oxy)pyridin-2-yl)-3-fluorobenzyl)-1-(oxetan-2-ylmethyl)-1H-benzo[d]imidazole-6-carboxylic acid] were 12 nM and 4.13%.
On the same counts, the results for `N#Cc1ccc(COc2cccc(-c3ccc(Cc4nc5ccc(C(=O)O)cc5n4C[C@@H]4CCO4)cc3F)n2)c(F)c1` [Example 74, (S)-2-(4-(6-(4-cyano-2-fluorobenzyloxy)pyridin-2-yl)-3-fluorobenzyl)-1-(oxetan-2-ylmethyl)-1H-benzo[d]imidazole-6-carboxylic acid] are 5.8 nM and -16.2%.
On to `N#Cc1ccc(COc2cccc(-c3ccc(Cc4nc5ccc(C(=O)O)cc5n4Cc4ccco4)cc3)n2)c(F)c1` [Example 18, 2-(4-(6-(4-cyano-2-fluorobenzyloxy)pyridin-2-yl)benzyl)-1-(furan-2-ylmethyl)-1H-benzo[d]imidazole-6-carboxylic acid], for which the EC50 on human GLP-1 receptor worked out at 110 nM. The inhibition at 2.5 h, 10 µM at hERG is 7.37%.
Taken in the same sequence, the figures for `O=C(O)c1ccc2nc(Cc3ccc(-c4cccc(OCc5ccc(Cl)cc5F)n4)c(F)c3F)n(CC3CCCO3)c2c1` (stereo not shown) [Example 61, 2-(4-(6-(4-chloro-2-fluorobenzyloxy)pyridin-2-yl)-2,3-difluorobenzyl)-1-((tetrahydrofuran-2-yl)methyl)-1H-benzo[d]imidazole-6-carboxylic acid] were 8.7 nM and -6.72%.
With `COCCn1c(Cc2ccc(-c3cccc(OCc4ccc(Cl)cc4F)n3)cc2F)nc2ccc(C(=O)O)cc21` [Example 3, 2-(4-(6-(4-chloro-2-fluorobenzyloxy)pyridin-2-yl)-2-fluorobenzyl)-1-(2-methoxyethyl)-1H-benzo[d]imidazole-6-carboxylic acid], the EC50 on human GLP-1 receptor worked out at 32 nM. Further, on hERG, the inhibition at 2.5 h, 10 µM was 8.39%.
As to `O=C(O)c1ccc2nc(Cc3ccc(-c4cccc(OCc5ccc(Cl)cc5F)n4)c(F)c3)n(C[C@H]3CCCO3)c2c1` [Example 52, (R)-2-(4-(6-(4-chloro-2-fluorobenzyloxy)pyridin-2-yl)-3-fluorobenzyl)-1-((tetrahydrofuran-2-yl)methyl)-1H-benzo[d]imidazole-6-carboxylic acid], on human GLP-1 receptor, the EC50 stood at 110 nM. Besides, the inhibition at 2.5 h, 10 µM on hERG is 24.2%.
On the same counts, the results for `COc1cccc(COc2cccc(-c3ccc(Cc4nc5ccc(C(=O)O)cc5n4CC4CCCO4)c(F)c3)n2)c1` (stereo not shown) [Example 81, 2-(2-fluoro-4-(6-(3-methoxybenzyloxy)pyridin-2-yl)benzyl)-1-((tetrahydrofuran-2-yl)methyl)-1H-benzo[d]imidazole-6-carboxylic acid] are 210 nM and -43.5%.
Taken in the same sequence, the figures for `COCCn1c(Cc2ccc(-c3cccc(OCc4ccc(Cl)cc4F)n3)cc2)nc2ccc(C(=O)O)cc21` [Example 2, 2-(4-(6-(4-chloro-2-fluorobenzyloxy)pyridin-2-yl)benzyl)-1-(2-methoxyethyl)-1H-benzo[d]imidazole-6-carboxylic acid] were 63 nM and -11.9%.
Regarding `N#Cc1ccc(COc2cccc(-c3ccn(Cc4nc5ccc(C(=O)O)cc5n4CC4CCCO4)c(=O)c3)c2)c(F)c1` (stereo not shown) [Example 107, 2-((4-(3-(4-cyano-2-fluorobenzyloxy)phenyl)-2-oxopyridin-1(2H)-yl)methyl)-1-((tetrahydrofuran-2-yl)methyl)-1H-benzo[d]imidazole-6-carboxylic acid], the EC50 on human GLP-1 receptor was found to be 380 nM. Also, the inhibition at 2.5 h, 10 µM at hERG is 2.7%.
Turning to `O=C(O)c1ccc2nc(Cc3ccc(-c4cccc(OCc5ccccc5)n4)cc3F)n(CC3CCCO3)c2c1` (stereo not shown) [Example 83, 2-(4-(6-(benzyloxy)pyridin-2-yl)-2-fluorobenzyl)-1-((tetrahydrofuran-2-yl)methyl)-1H-benzo[d]imidazole-6-carboxylic acid], the EC50 on human GLP-1 receptor came to 160 nM. Further, the inhibition at 2.5 h, 10 µM at hERG was 2.37%.
On the same counts, the results for `O=C(O)c1ccc2nc(Cc3ccc(-c4cccc(OCc5ccc(Cl)cc5F)n4)cc3)n(Cc3ccco3)c2c1` [Example 12, 2-(4-(6-(4-chloro-2-fluorobenzyloxy)pyridin-2-yl)benzyl)-1-(furan-2-ylmethyl)-1H-benzo[d]imidazole-6-carboxylic acid] are 85 nM and -2.74%.
Taken in the same sequence, the figures for `O=C(O)c1ccc2nc(Cc3ccc(-c4cccc(OCc5ccc(Cl)cc5F)c4)c(F)c3)n(C[C@H]3CCCO3)c2c1` [Example 42, (R)-2-((3′-(4-chloro-2-fluorobenzyloxy)-2-fluorobiphenyl-4-yl)methyl)-1-((tetrahydrofuran-2-yl)methyl)-1H-benzo[d]imidazole-6-carboxylic acid] were 250 nM and -23.6%.
Taken in the same sequence, the figures for `COc1cc(-c2cccc(OCc3ccc(Cl)cc3F)n2)ccc1Cc1nc2ccc(C(=O)O)cc2n1CC1CCCO1` (stereo not shown) [Example 63, 2-(4-(6-(4-chloro-2-fluorobenzyloxy)pyridin-2-yl)-2-methoxybenzyl)-1-((tetrahydrofuran-2-yl)methyl)-1H-benzo[d]imidazole-6-carboxylic acid] were 160 nM and -19.6%.
`N#Cc1ccc(COc2cccc(-c3ccc(Cc4nc5ccc(C(=O)O)cc5n4CCF)c(F)c3)n2)c(F)c1` [Example 44, 2-(4-(6-(4-cyano-2-fluorobenzyloxy)pyridin-2-yl)-2-fluorobenzyl)-1-(2-fluoroethyl)-1H-benzo[d]imidazole-6-carboxylic acid]: the concentration giving a half-maximal response (EC50) at human GLP-1 receptor is 230 nM. Also, the inhibition at 2.5 h, 10 µM on hERG is 1.77%.
On the same counts, the results for `Cc1cc(-c2cccc(OCc3ccc(Cl)cc3F)n2)ccc1Cc1nc2ccc(C(=O)O)cc2n1C[C@@H]1CCO1` [Example 134, (S)-2-(4-(6-((4-chloro-2-fluorobenzyl)oxy)pyridin-2-yl)-2-methylbenzyl)-1-(oxetan-2-ylmethyl)-1H-benzo[d]imidazole-6-carboxylic acid] are 190 nM and 28.3%.
Taken in the same sequence, the figures for `COCCn1c(Cc2ccc(-c3cccc(OCc4ccc(Cl)cc4F)n3)c(F)c2)nc2ccc(C(=O)O)cc21` [Example 6, 2-(4-(6-(4-chloro-2-fluorobenzyloxy)pyridin-2-yl)-3-fluorobenzyl)-1-(2-methoxyethyl)-1H-benzo[d]imidazole-6-carboxylic acid] were 25 nM and 22.8%.
On the same counts, the results for `O=C(O)c1ccc2nc(Cc3ccc(-c4cccc(OCc5ccc(Cl)cc5F)n4)cc3F)n(CC3CCCO3)c2c1` (stereo not shown) [Example 17, 2-(4-(6-(4-chloro-2-fluorobenzyloxy)pyridin-2-yl)-2-fluorobenzyl)-1-((tetrahydrofuran-2-yl)methyl)-1H-benzo[d]imidazole-6-carboxylic acid] are 8.2 nM and -9.12%.
Turning to `Cc1cc(Cc2nc3ccc(C(=O)O)cc3n2Cc2ccco2)ccc1-c1cccc(OCc2ccc(C#N)cc2F)n1` [Example 30, 2-(4-(6-(4-cyano-2-fluorobenzyloxy)pyridin-2-yl)-3-methylbenzyl)-1-(furan-2-ylmethyl)-1H-benzo[d]imidazole-6-carboxylic acid], the EC50 on human GLP-1 receptor came out at 460 nM. Besides, the inhibition at 2.5 h, 10 µM at hERG is 0.33%.
Taken in the same sequence, the figures for `COc1cc(-c2cccc(OCc3ccc(C#N)cc3F)n2)ccc1Cc1nc2ccc(C(=O)O)cc2n1CC1CCCO1` (stereo not shown) [Example 64, 2-(4-(6-(4-cyano-2-fluorobenzyloxy)pyridin-2-yl)-2-methoxybenzyl)-1-((tetrahydrofuran-2-yl)methyl)-1H-benzo[d]imidazole-6-carboxylic acid] were 110 nM and -9.05%.
Taken in the same sequence, the figures for `N#Cc1ccc(COc2cccc(-c3ccc(Cc4nc5ccc(C(=O)O)cc5n4Cc4ccco4)c(F)c3)n2)c(F)c1` [Example 19, 2-(4-(6-(4-cyano-2-fluorobenzyloxy)pyridin-2-yl)-2-fluorobenzyl)-1-(furan-2-ylmethyl)-1H-benzo[d]imidazole-6-carboxylic acid] were 40 nM and 1.8%.
`O=C(O)c1ccc2nc(Cn3cc(-c4cccc(OCc5ccc(Cl)cc5F)n4)cn3)n(C[C@@H]3CCO3)c2c1` [Example 131, (S)-2-((4-(6-((4-chloro-2-fluorobenzyl)oxy)pyridin-2-yl)-1H-pyrazol-1-yl)methyl)-1-(oxetan-2-ylmethyl)-1H-benzo[d]imidazole-6-carboxylic acid]: the concentration for a half-maximal effect (EC50) on human GLP-1 receptor is 1600 nM. On hERG, the inhibition at 2.5 h, 10 µM is -0.97%.

These data come from patent publication US12421205B2, “GLP-1 receptor agonist” (HYUNDAI PHARM CO., LTD., priority 2019, dated 2025).
